Earlier results in patent publication US20070190117A1 (priority 2003, published 2007).

Settings: galanthamine as hydrobromide or another pharmacologically acceptable salt

For COc1ccc2c3c1O[C@H]1C[C@@H](O)C=C[C@@]31CCN(C)C2 [galanthamine, 4a,5,9,11,12-hexahydro-3-methoxy-11-methyl[6H]-benzofuro-[3a,3,2ef][2]benzazepine-6-ol], the “half life in plasma” value is listed as “approx. 5 h”.
